From US5863550A, “Cholestasis ameliorant” (Tokyo Tanabe Company Limited, priority 1993, dated 1999)
Entries after “also recorded” stand apart in the source; their conditions may differ.

Tests used:
intrahepatic cholestasis = conditions: cited from earlier work
[1] = in words, background; cited from earlier work
[2] = tested on: bile flow reduction induced by estradiol-17β-D-glucuronide (E-17-G); assay: Ameliorative effect against cholestasis in rats (E-17-G-induced reduction of bile flow); format: in vivo, female SD rats
Description: An extra external-biliary fistula was developed in female SD rats under anesthesia and, after bile collection for 30 minutes, estradiol-17β-D-glucuronide (E-17-G) was administered via their femoral veins as a single dose of 10 μ mole/kg. Immediately after the administration, tauroursodeoxycholic acid was continuously administered over two hours via the femoral veins at a rate of 0.6 μ mole/min/100 g body weight, and the bile flow was measured serially.

[3] = Acute toxicity (LD50), intravenous, rats; design: species or system 6-week old CD rats; conditions: rat, in vivo
Description: (§1) The acute toxicity (LD50) of intravenously administered tauroursodeoxycholic acid was evaluated in 6-week old male and female CD rats and 8 to 11-month old male and female beagle dogs. The LD50 was 600 to 800 mg/kg in male rats and 800 to 1000 mg/kg in female rats.

Solubility in water = format: physicochemical; conditions: in words
[4] = Acute toxicity (LD50), intravenous, beagle dogs; design: species or system 8 to 11-month old beagle dogs; conditions: dog, in vivo, both sexes
Description: as §1

[5] = tested on: hepatic injury induced by α-naphthylisothiocyanate (ANIT); assay: Protective effect against hepatic injury in mice (ANIT); format: in vivo, male ICR mice
Description: Tauroursodeoxycholic acid was administered to male ICR mice via their caudal veins at a dose within a range of 100 to 1200μ mole/kg two hours before and two hours after an administration of α-naphthylisothiocyanate (ANIT) as a single dose of 80 mg/kg. Serum bilirubin concentration, total bile acid concentration and LDH activity were measured two days after the ANIT administration.

[6] = tested on: patients with cholestasis; assay: Clinical results of tauroursodeoxycholic acid injection (patients with cholestasis / jaundice); format: in vivo, human (patients)
Description: Since tylosis of the gallbladder walls was observed by abdominal ultrasonic imaging and there were severe icteric symptoms, this case was diagnosed as cholestasis due to drug-induced hepatopathy.
At a stage when moderate jaundice still remained (total bilirubin: 6.9 mg/dl) and no improvement had been noted in subjective symptoms such as skin itching and epigastric discomfort, tauroursodeoxycholic acid was intravenously injected once a day at a dose of 100 mg for 14 days. As a result, the total bilirubin level, GOT and GPT were decreased to 2.1 mg/dl, 45 U/l and 36 U/l, respectively, and the icteric symptoms as well as the subjective symptoms such as skin itching and epigastric discomfort were disappeared.
[…] After the patient came back to Japan on April 5 and was hospitalized, tauroursodeoxycholic acid was intravenously administered once a day at a dose of 100 mg for 14 days.
At a stage when moderate jaundice was observed (total bilirubin: 9.0 mg/dl, GOT: 838 U/l, GPT 451 U/l), tauroursodeoxycholic acid was administered once a day at a dose of 300 mg by intravenous drip infusion for 14 days.
This patient was diagnosed to suffer from cholestasis due to acute viral hepatitis based on results of immuno-serological test including GOT of 11600 U/l, GPT of 6300 U/l and total bilirubin level of 7.7 mg/dl and HBV positive result of virological test as well as severe icteric symptoms.
At a stage when jaundice was still severe (total bilirubin: 16.19 mg/dl), tauroursodeoxycholic acid was administered once a day at a dose of 300 mg by intravenous drip infusion for 14 days. As a result, the total bilirubin level, GOT and GPT were decreased to 4.4 mg/dl, 48 U/l and 36 U/l, respectively, icteric symptoms were improved from the day after one week of the administration and subjective symptoms such as skin itching and systemic malaise were disappeared by the 10th day of the administration.
This patient began to feel general malaise in late June 1993 and, since jaundice appeared on Jun. 28, they visited a neighboring clinic and received treatment. In spite of that, jaundice was not improved and they referred to our medical institution on July 5. Based on the results of inspections, the patient was diagnosed to suffer cholestasis due to acute viral hepatitis (type B).
Tauroursodeoxycholic acid was administered by intravenous injection once a day at a dose of 600 mg for 18 days from July 8.
This patient noticed jaundice in the middle of May 1993 and consulted a doctor. Their symptom was diagnosed as obstructive jaundice based on images of enlargement of the bilateral intrahepatic bile ducts and 3-4 cm long irregular stenosis in the choledoch observed in endoscopic retrograde cholangiopancreatography (ERCP) and underwent endoscopic […] bile duct drainage (ENBD) on May 31.
Because icteric symptoms were not improved, tauroursodeoxycholic acid was intravenously injected once a day at a dose of 100 mg for 22 days.
This patient was diagnosed to suffer from pancreatic cancer by ERCP. […] Concurrently, icteric symptoms and skin itching were continued. Therefore, tauroursodeoxycholic acid was intravenously injected once a day at a dose of 600 mg for 38 days. As a result, the total bilirubin level was decreased to 3.3 mg/dl, the bile flow was increased from the preadministration level of 230 ml/day to 440 ml/day, and icteric symptoms and skin itching were improved.

[7] = 100 to 1200 μ mole/kg via caudal veins two hours before and two hours after ANIT 80 mg/kg, two days after ANIT
[8] = Example 2 patient, 100 mg i.v. once a day for 14 days, from the day after three days of the administration
[9] = Example 5 patient, 600 mg i.v. once a day for 18 days
[10] = Example 6 patient, obstructive jaundice, ENBD, 100 mg i.v. once a day for 22 days, after one week

C[C@H](CCC(=O)O)[C@H]1CC[C@H]2[C@@H]3[C@@H](O)C[C@@H]4C[C@H](O)CC[C@]4(C)[C@H]3CC[C@]12C [ursodeoxycholic acid]
efficacy against intrahepatic cholestasis (intrahepatic cholestasis; ursodeoxycholic acid preparations, recently reported in Japan and other countries): very high efficacy | solubility [1]: very low

C[C@H](CCC(=O)NCCS(=O)(=O)O)[C@H]1CC[C@H]2[C@@H]3[C@@H](O)C[C@@H]4C[C@H](O)CC[C@]4(C)[C@H]3CC[C@]12C [tauroursodeoxycholic acid]
infusion rate at or above which the reduction of the bile flow induced by E-17-G was inhibited ([2]; female SD rats, E-17-G 10 μ mole/kg i.v., continuous infusion over two hours via femoral veins): ≥ 0.3 μ mole/min/100 g body weight | inhibition of the reduction of bile flow compared with free ursodeoxycholic acid ([2]; female SD rats, E-17-G 10 μ mole/kg i.v., comparator free ursodeoxycholic acid): more marked than that of free ursodeoxycholic acid | cholagogue effect ([2]; general conclusion): exerts cholagogue effect | LD50 ([3]; female rats): 800 to 1000 mg/kg | LD50 ([3]; male rats): 600 to 800 mg/kg | solubility in water (Solubility in water): better solubility in water as compared with ursodeoxycholic acid; also recorded: high solubility in water; also recorded: excellent solubility in water | LD50 [4]: 300 to 600 mg/kg | increase of LDH activity induced by ANIT [5, 7]: inhibited | increase of serum bilirubin concentration induced by ANIT [5, 7]: inhibited | increase of total bile acid concentration induced by ANIT [5, 7]: inhibited | protective effect of hepatocyte ([5]; general conclusion): protective effect of hepatocyte | total bilirubin level ([6]; Example 1 patient, drug-induced hepatopathy, 100 mg i.v. once a day for 14 days, before: 6.9 mg/dl): 2.1 mg/dL | GOT ([6]; Example 1 patient, drug-induced hepatopathy, 100 mg i.v. once a day for 14 days, peak before: 548 U/l): 45 U/l | GPT ([6]; Example 1 patient, drug-induced hepatopathy, 100 mg i.v. once a day for 14 days, peak before: 664 U/l): 36 U/l | icteric symptoms and subjective symptoms such as skin itching and epigastric discomfort ([6]; Example 1 patient, 100 mg i.v. once a day for 14 days): disappeared | total bile acid level ([6]; Example 2 patient, acute viral hepatitis, 100 mg i.v. once a day for 14 days, before: 21 μmole/l): 12 µmol/L | total bilirubin level ([6]; Example 2 patient, acute viral hepatitis, 100 mg i.v. once a day for 14 days, before: 31.4 mg/dl): 13.7 mg/dL | icteric symptoms [6, 8]: improvement of icteric symptoms | subjective symptoms such as skin itching and anorexia [6, 8]: disappeared | total bilirubin level ([6]; Example 3 patient, drug-induced hepatopathy, 300 mg once a day i.v. drip infusion for 14 days, before: 9.0 mg/dl): 2.8 mg/dL | icteric symptoms due to cholestasis ([6]; Example 3 patient, 300 mg once a day i.v. drip infusion for 14 days): improvement in icteric symptoms | GPT ([6]; Example 3 patient, 300 mg once a day i.v. drip infusion for 14 days, before: 451 U/l): 145 U/l | GOT ([6]; Example 3 patient, 300 mg once a day i.v. drip infusion for 14 days, before: 838 U/l): 171 U/l | total bilirubin level, GOT and GPT after completion of administration ([6]; Example 3 patient, two weeks after the completion of 300 mg once a day i.v. drip infusion for 14 days): no increase was observed | total bilirubin level ([6]; Example 4 patient, acute viral hepatitis (HBV positive), 300 mg once a day i.v. drip infusion for 14 days, before: 16.19 mg/dl): 4.4 mg/dL | GPT ([6]; Example 4 patient, 300 mg once a day i.v. drip infusion for 14 days, at diagnosis: 6300 U/l): 36 U/l | GOT ([6]; Example 4 patient, 300 mg once a day i.v. drip infusion for 14 days, at diagnosis: 11600 U/l): 48 U/l | subjective symptoms such as skin itching and systemic malaise ([6]; Example 4 patient, 300 mg once a day i.v. drip infusion, by the 10th day of the administration): disappeared | icteric symptoms ([6]; Example 4 patient, 300 mg once a day i.v. drip infusion, from the day after one week of the administration): improved | total bilirubin level ([6]; Example 5 patient, acute viral hepatitis (type B), 600 mg i.v. once a day, after 4 days): reduced by half | total bilirubin level ([6]; Example 5 patient, acute viral hepatitis (type B), 600 mg i.v. once a day, after one week): almost within the normal range | icteric symptoms and general malaise [6, 9]: disappeared | other parameters related to the liver function [6, 9]: improved | jaundice and skin itching ([6]; Example 6 patient, obstructive jaundice, ENBD, 100 mg i.v. once a day for 22 days): improvement of jaundice and skin itching | bile flow [6, 10]: apparent increase of bile flow | total bilirubin level [6, 10]: decrease of the total bilirubin level | icteric symptoms and skin itching ([6]; Example 7 patient, pancreatic cancer, PTCD, 600 mg i.v. once a day for 38 days): improved | total bilirubin level ([6]; Example 7 patient, pancreatic cancer, PTCD, 600 mg i.v. once a day for 38 days, before: around 15 mg/dl): 3.3 mg/dL | bile flow ([6]; Example 7 patient, pancreatic cancer, PTCD, 600 mg i.v. once a day for 38 days, preadministration 230 ml/day): 440 mL/day | ameliorative effect against cholestasis ([6]; general finding, patients with liver diseases): ameliorative effect against cholestasis

CCC1(c2ccccc2)C(=O)NC(=O)NC1=O [phenobarbital]
efficacy in the treatment of intrahepatic cholestasis (intrahepatic cholestasis; steroid and phenobarbital preparations currently used): a certain level of, but often insufficient, efficacy
